Paper PMC12310481, “Sequence, characterization and pharmacological analyses of the adipokinetic hormone receptor in the stick insect, Carausius morosus” (Frontiers in Endocrinology, 2025)
“And” between values parts separate entries of the source, which are not always exact repeats. Equal values may be shown once. Read-outs that look alike come from different tables or passages of the source. Starred links: 1 amine or outer side, 2 acyl side, 3 side chain; linkers in the order of their positions; H or OH if unused. Non-standard residues stand in square brackets, D forms with d. Residues, ends and D or L forms follow the SMILES beside them. X1 = O=C([C@H](Cc1c([C@H]2O[C@H](CO)[C@@H](O)[C@H](O)[C@@H]2O)[nH]c2ccccc12)N[*:1])[*:2]; pGlu = O=C1CC[C@@H](C(=O)O)N1

Test system: Carausius morosus AKH receptor (Carmo-AKHR)
Assay: Calcium bioluminescence (aequorin) reporter assay, CHO-K1 cells stably expressing Carmo-AKHR
Type: cell-based
Conditions: for Fold-reduction in activity (receptor activation relative to Carmo-HrTH-II): ratio of EC50 relative to Carmo-HrTH-II; for Receptor activation (in words): dose-response or clonal line testing, luminescence
Experimental: Functional activation of Carmo-AKHR was carried out by following mammalian cell culture procedures as previously described ([20], [29]) with the following modifications. […] At 24 h post-transfection, cells were selected in DMEM:F12 media containing 10% heat-inactivated fetal bovine serum (Wisent, St. Bruno, QC), 1x antimycotic-antibiotic and 600 μg/mL geneticin (G418) until clonal recombinant cells were evident in transfected cells while no live cells were present in non-transfected CHO-K1 cells (control). Individual clonal recombinant colonies were seeded into separate wells of a 96 well cell-culture dish (Sarstedt Inc., Montreal, QC) and grown to confluence while maintaining geneticin selection. To identify clonal recombinant lines with optimal Carmo-AKHR activity yielding the greatest signal-to-noise ratio, individual clonal recombinant lines were assayed in the bioluminescence reporter assay as described previously ([30]). […] The recombinant cell line showing the optimal luminescent response with greatest signal-to-noise ratio was expanded for preparation of cryo-stocks and subsequent detailed investigation of receptor specificity. […] Bruno, QC), 250 μg/mL Geneticin (MilliporeSigma Canada Ltd., Oakville, ON) and 1X antimycotic-antibiotic (ThermoFisher Scientific, Whitby, ON). […] Transfection was completed with PolyJetTM DNA In Vitro Transfection Reagent (FroggaBio, Toronto, ON) following manufacturer recommendations for transfection of adherent cells. At 48 hours post-transfection, cells were detached from culture flasks using Dulbecco's PBS (Wisent, St. Bruno, QC) containing 5 mM Ethylenediaminetetraacetic acid (EDTA) and were prepared for the functional assay as previously described ([30]). […] Immediately after injection of the cells into each well, luminescence was measured for 20 s using a Synergy 2 Multi-Mode Microplate Reader (BioTek, Winooski, VT, USA). […] Data were analyzed using a one-way or two-way ANOVA and Tukey's multiple comparisons post-hoc test, with differences between treatments considered significant if p<0.05.

[1] = CHO-K1 stably expressing Carmo-AKHR, transiently aequorin, luminescence measured 20 s, from dose-response activation curves, 3 to 4 independent biological replicates, normalized to ATP maximum, read-out: EC50 value
[2] = minimal activity up to the highest concentration tested, read-out: EC50 value (M), not determinable: minimal activity

Molecule	EC50 [1] [M]	Fold-reduction in activity (receptor activation relative to Carmo-HrTH-II)	EC50 [2] [M]	Receptor activation (in words)
C[C@H](NC(=O)[C@@H]1CCC(=O)N1)C(=O)N[C@H](C(=O)N[C@@H](Cc1ccccc1)C(=O)N[C@H](C(=O)N1CCC[C@H]1C(=O)N[C@@H](CC(N)=O)C(=O)N[C@@H](Cc1c[nH]c2ccccc12)C(=O)NCC(=O)N[C@H](C(N)=O)[C@@H](C)O)[C@@H](C)O)[C@@H](C)O [Ala^2-analog] ([pGlu]ATFTPNWGT-NH2)	6.93e-07	9.42 fold		
CC(C)C[C@H](NC(=O)[C@@H]1CCC(=O)N1)C(=O)N[C@H](C(=O)N[C@@H](Cc1ccccc1)C(=O)N[C@@H](C)C(=O)N1CCC[C@H]1C(=O)N[C@@H](CC(N)=O)C(=O)N[C@@H](Cc1c[nH]c2ccccc12)C(=O)NCC(=O)N[C@H](C(N)=O)[C@@H](C)O)[C@@H](C)O [Ala^5-analog] ([pGlu]LTFAPNWGT-NH2)	8.58e-05	1166.83 fold		
CC(C)C[C@H](NC(=O)[C@@H]1CCC(=O)N1)C(=O)N[C@H](C(=O)N[C@@H](Cc1ccccc1)C(=O)N[C@H](C(=O)N[C@@H](C)C(=O)N[C@@H](CC(N)=O)C(=O)N[C@@H](Cc1c[nH]c2ccccc12)C(=O)NCC(=O)N[C@H](C(N)=O)[C@@H](C)O)[C@@H](C)O)[C@@H](C)O [Ala^6-analog] ([pGlu]LTFTANWGT-NH2)	4.04e-07	5.49 fold		
CC(C)C[C@H](NC(=O)[C@@H]1CCC(=O)N1)C(=O)N[C@H](C(=O)N[C@@H](Cc1ccccc1)C(=O)N[C@H](C(=O)N1CCC[C@H]1C(=O)N[C@@H](C)C(=O)N[C@@H](Cc1c[nH]c2ccccc12)C(=O)NCC(=O)N[C@H](C(N)=O)[C@@H](C)O)[C@@H](C)O)[C@@H](C)O [Ala^7-analog] ([pGlu]LTFTPAWGT-NH2)	3.1e-07	4.21 fold		
CC(C)C[C@H](NC(=O)[C@@H]1CCC(=O)N1)C(=O)N[C@H](C(=O)N[C@@H](Cc1ccccc1)C(=O)N[C@H](C(=O)N1CCC[C@H]1C(=O)N[C@@H](CC(N)=O)C(=O)N[C@@H](C)C(=O)NCC(=O)N[C@H](C(N)=O)[C@@H](C)O)[C@@H](C)O)[C@@H](C)O [Ala^8-analog] ([pGlu]LTFTPNAGT-NH2)		>1360 fold	> 0.0001	
CC(C)C[C@H](NC(=O)[C@@H]1CCC(=O)N1)C(=O)N[C@H](C(=O)N[C@@H](Cc1ccccc1)C(=O)N[C@H](C(=O)N1CCC[C@H]1C(=O)N[C@@H](CC(N)=O)C(=O)N[C@@H](Cc1c[nH]c2ccccc12)C(=O)N[C@@H](C)C(=O)N[C@H](C(N)=O)[C@@H](C)O)[C@@H](C)O)[C@@H](C)O [Ala^9-analog] ([pGlu]LTFTPNWAT-NH2)	1.48e-06	20.18 fold		
CC(C)C[C@H](NC(=O)[C@@H]1CCC(=O)N1)C(=O)N[C@H](C(=O)N[C@@H](Cc1ccccc1)C(=O)N[C@H](C(=O)N1CCC[C@H]1C(=O)N[C@@H](CC(N)=O)C(=O)N[C@@H](Cc1c[nH]c2ccccc12)C(=O)NCC(=O)N[C@@H](C)C(N)=O)[C@@H](C)O)[C@@H](C)O [Ala^10-analog] ([pGlu]LTFTPNWGA-NH2)	1.1e-08	0.15 fold		
CC(C)C[C@H](NC(=O)[C@@H]1CCC(=O)N1)C(=O)N[C@H](C(=O)N[C@@H](Cc1ccccc1)C(=O)N[C@H](C(=O)N1CCC[C@H]1C(=O)N[C@@H](CC(N)=O)C(=O)N[C@@H](Cc1c[nH]c2ccccc12)C(=O)NCC(=O)N[C@H](C(=O)O)[C@@H](C)O)[C@@H](C)O)[C@@H](C)O [Carmo-HrTH-II free acid] ([pGlu]LTFTPNWGT-OH)		>1360 fold	> 0.0001	
CC(C)C[C@H](N)C(=O)N[C@H](C(=O)N[C@@H](Cc1ccccc1)C(=O)N[C@H](C(=O)N1CCC[C@H]1C(=O)N[C@@H](CC(N)=O)C(=O)N[C@@H](Cc1c[nH]c2ccccc12)C(=O)NCC(=O)N[C@H](C(N)=O)[C@@H](C)O)[C@@H](C)O)[C@@H](C)O [Carmo-HrTH-II minus pGlu] (H-LTFTPNWGT-NH2)		>1360 fold	> 0.0001	
CC(C)C[C@H](NC(=O)[C@@H]1CCC(=O)N1)C(=O)N[C@H](C(=O)N[C@@H](Cc1ccccc1)C(=O)N[C@H](C(=O)N1CCC[C@H]1C(=O)N[C@@H](CC(N)=O)C(=O)N[C@@H](Cc1c[nH]c2ccccc12)C(=O)NCC(=O)N[C@H](C(N)=O)[C@@H](C)O)[C@@H](C)O)[C@@H](C)O [Carmo-HrTH-II] ([pGlu]LTFTPNWGT-NH2)	7.36e-08			
CC(C)C[C@H](NC(=O)[C@@H]1CCC(=O)N1)C(=O)N[C@H](C(=O)N[C@@H](Cc1ccccc1)C(=O)N[C@H](C(=O)N1CCC[C@H]1C(=O)N[C@@H](CC(N)=O)C(=O)N[C@@H](Cc1c([C@H]2O[C@H](CO)[C@@H](O)[C@H](O)[C@@H]2O)[nH]c2ccccc12)C(=O)NCC(=O)N[C@H](C(N)=O)[C@@H](C)O)[C@@H](C)O)[C@@H](C)O [Carmo-HrTH-I] ([pGlu]LTFTPN[X1]GT-NH2)	8.97e-08	1.22 fold		
CC(C)C[C@H](NC(=O)[C@@H]1CCC(=O)N1)C(=O)N[C@@H](CC(N)=O)C(=O)N[C@@H](Cc1ccccc1)C(=O)N[C@@H](CO)C(=O)N1CCC[C@H]1C(=O)NCC(=O)N[C@@H](Cc1c[nH]c2ccccc12)C(N)=O [Panbo-RPCH] ([pGlu]LNFSPGW-NH2)	3.35e-05	455 fold and 455.74 fold		
CC(C)[C@H](NC(=O)[C@@H]1CCC(=O)N1)C(=O)N[C@@H](CC(N)=O)C(=O)N[C@@H](Cc1ccccc1)C(=O)N[C@@H](CO)C(=O)N1CCC[C@H]1C(=O)N[C@@H](CC(N)=O)C(=O)N[C@@H](Cc1c[nH]c2ccccc12)C(N)=O [Peram-CAH-I] ([pGlu]VNFSPNW-NH2)		>1360 fold	> 0.0001	complete loss of efficacy
CC[C@H](C)[C@H](NC(=O)[C@@H]1CCC(=O)N1)C(=O)N[C@H](C(=O)N[C@@H](Cc1ccccc1)C(=O)N[C@H](C(=O)N1CCC[C@H]1C(=O)N[C@@H](CC(N)=O)C(=O)N[C@@H](Cc1c[nH]c2ccccc12)C(N)=O)[C@@H](C)O)[C@@H](C)O [Polae-HrTH] ([pGlu]ITFTPNW-NH2)	8.76e-06	120 fold and 119.12 fold		
CC(C)C[C@H](NC(=O)[C@@H]1CCC(=O)N1)C(=O)N[C@H](C(=O)N[C@@H](Cc1ccccc1)C(=O)N[C@H](C(=O)N1CCC[C@H]1C(=O)N[C@@H](CC(N)=O)C(=O)N[C@@H](Cc1c[nH]c2ccccc12)C(=O)NCC(N)=O)[C@@H](C)O)[C@@H](C)O [Triin-AKH] ([pGlu]LTFTPNWG-NH2)	5.48e-07	7.45 fold		
CC(=O)N[C@@H](C)C(=O)N[C@@H](CC(C)C)C(=O)N[C@H](C(=O)N[C@@H](Cc1ccccc1)C(=O)N[C@H](C(=O)N1CCC[C@H]1C(=O)N[C@@H](CC(N)=O)C(=O)N[C@@H](Cc1c[nH]c2ccccc12)C(=O)NCC(=O)N[C@H](C(N)=O)[C@@H](C)O)[C@@H](C)O)[C@@H](C)O [[N-Ac. Ala]^1-analog] (Ac-ALTFTPNWGT-NH2)		>1360 fold	> 0.0001	
[pGlu]LAFTPNWGT-NH2 [Ala^3-analog, alanine-substituted analog of Carmo-HrTH-II, position 3]		1045.82 fold		
[pGlu]LTATPNWGT-NH2 [Ala^4-analog, alanine-substituted analog of Carmo-HrTH-II, position 4]		>1360 fold		
[pGlu]VTFSRDWNA-NH2 [Aedae-ACP, AKH/corazonin-related peptide of Aedes aegypti]				failed to activate the receptor at all tested doses
pETFQYSRGWTN amide [Aedae-Crz, corazonin of the mosquito Aedes aegypti]				failed to activate the receptor at all tested doses
